BindingDB's records for patent US11903936 (University of Texas, 2024)

Molecular target: T1, Dihydroorotate dehydrogenase (quinone), mitochondrial (Plasmodium falciparum (isolate 3D7), UniProt Q08210)
T1 sequence (Q08210 whole entry): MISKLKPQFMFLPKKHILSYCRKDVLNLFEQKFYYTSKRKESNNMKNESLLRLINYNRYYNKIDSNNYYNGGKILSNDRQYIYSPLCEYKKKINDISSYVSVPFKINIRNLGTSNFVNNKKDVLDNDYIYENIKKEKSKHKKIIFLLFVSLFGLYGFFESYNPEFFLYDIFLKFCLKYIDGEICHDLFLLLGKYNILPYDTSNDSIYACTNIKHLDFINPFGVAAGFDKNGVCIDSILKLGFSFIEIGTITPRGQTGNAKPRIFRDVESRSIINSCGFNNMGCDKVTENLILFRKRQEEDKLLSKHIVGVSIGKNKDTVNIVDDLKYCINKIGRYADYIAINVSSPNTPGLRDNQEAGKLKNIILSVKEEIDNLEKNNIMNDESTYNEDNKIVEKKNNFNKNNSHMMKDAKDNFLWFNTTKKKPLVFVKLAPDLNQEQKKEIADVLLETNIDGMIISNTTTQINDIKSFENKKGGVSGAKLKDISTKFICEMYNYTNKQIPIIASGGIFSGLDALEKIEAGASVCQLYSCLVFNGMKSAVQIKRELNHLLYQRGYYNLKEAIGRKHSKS
Test: P. falciparum growth and inhibition assays
Experimental: DSMO inhibitor stocks (as above) were diluted in DMSO using a 2 or 3-fold dilution series and then dispensed into media at 10× the final concentrations. A second step into media led to final inhibitor concentrations ranging from 0.001-30 μM and a final DMSO concentration of 0.2%. […] Data were collected using triplicate technical replicates and where indicated additional biological replicates were collected (the number of biological replicates is provided in parenthesis).

**Q.** `Cc1c(Cc2ccc(C(F)(F)F)c(F)c2)c[nH]c1C(=O)NC(C)c1nc[nH]n1` (stereo unspecified) [US11903936, Compound 5] was tested. Which EC50 did it give?
**A.** Its EC50 is 39 nM.
